The results in this text go back to US9428439B2, “Hydrobenzamide derivatives as inhibitors of Hsp90” (priority 2006, dated 2016).

Entries after “also recorded” stand apart in the source; their conditions may differ. Where two headings read alike, the source gives them in different places.

Usually IC50 stands for the concentration at which inhibition is half-maximal. In general, Kd refers to the free concentration of one partner at which half of the binding sites on the other are occupied at equilibrium, for simple one-to-one binding.

Series [1] can be described thus: Solid-state stability of crystalline forms (XRPD). As to conditions: for stability in air: XRPD. In kind it is physicochemical. From the text: Samples for X-ray powder diffraction (XRPD) data collection were gently ground by marble mortar and loaded into a crystallographic capillary (from Hampton Research, Quartz or Glass Type 10, 0.4 or 0.7 mm diameter). Diffraction patterns were collected at room temperature using CuKα radiation (λ=1.5418 Å) from a Rigaku rotating anode RU3HR, Osmic blue confocal optics, ¼ c goniometer and a Rigaku HTC image plate detector. 2D Images were collected while spinning φ axis with a detector to crystal distance of 250 mm. Data collection was controlled by CrystalClear software and 2D images were converted to 1D plot (2θ vs. Intensity) by Datasqueeze (intensity averaged over the azimuthal angle 0≦χ≦360° for […] 3-30° in 0.02° steps). In house program AstexXRPD was used for manipulation and visualisation of 1D XRPD patterns.

A short description of the next series: Hygroscopicity. Format: physicochemical.
Another series is described as follows: Rate of solubility. As to conditions: compared with the free base and other salts tested. Format: physicochemical.
For series [2], the system named is human colon cancer cell line HCT116. Briefly: Anti-proliferative activity (Alamar Blue assay). In kind it is cell-based. As to conditions: HCT-116. The method, then:
The anti-proliferative activities of compounds of the invention can be determined by measuring the ability of the compounds to inhibition of cell growth in a number of cell lines such as the human colon cancer cell line HCT116. Inhibition of cell growth is measured using the Alamar Blue assay (Nociari, M. M, Shalev, A., Benias, P., Russo, C. Journal of Immunological Methods 1998, 213, 157-167). The method is based on the ability of viable cells to reduce resazurin to its fluorescent product resorufin. For each proliferation assay cells are plated onto 96 well plates and allowed to recover for 16 hours prior to the addition of inhibitor compounds for a further 72 hours. At the end of the incubation period 10% (v/v) Alamar Blue is added and incubated for a further 6 hours prior to determination of fluorescent product at […]. In the case of the non-proliferating cell assay cells are maintained at confluence for 96 hour prior to the addition of inhibitor compounds for a further 72 hours. The number of viable cells is determined by Alamar Blue assay as before. Cell lines can be obtained from the ECACC (European Collection of cell Cultures).
(Resazurin is reduced to fluorescent resorufin, in cell work by metabolically active cells.)

Series [3] has as its target T1, human Hsp90α N-terminal domain (Homo sapiens, UniProt P07900).
T1 construct: purification of the Human Hsp90α N-terminal domain were performed according to published methods; made in house
Nature of the series: Isothermal titration calorimetry (ITC). In kind it is binding. The method, then: The ability of the compounds of the invention to bind to human Hsp90 proteins was determined using isothermal titration calorimetry. Isothermal titration calorimetry (ITC) experiments were performed with a VP-ITC titration calorimeter (Microcal Inc., Northampton, Mass., USA). Cloning, expression, and purification of the Human Hsp90α N-terminal domain were performed according to published methods (Jez, J. M. et al, Chem. […] All solutions were filtered and degassed prior to a titration being carried out. The enthalpy change resulting from each injection of ligand was obtained through integration of the calorimetric signal. Data were analysed using Origin 7.0 (Microcal Software Inc., Northampton, Mass.). Heats of dilution were estimated using the final injections of each individual titration and subtracted before data fitting. […] For weakly binding compounds a low c-value ITC method was used (Turnbull […]. Am. Chem. Soc. 2003 Dec. 3; 125(48):14859-66) in which the protein was present at 10-20 μM in the calorimetric cell and the compound concentration was 1-20 mM in the injection syringe. In this type of experiment the stoichiometry parameter (N) was locked at 1 for data fitting. […] In rare cases where compound solubility was limiting, the compound solution was placed in the calorimetric cell and titrated with protein from the injection syringe, maintaining a c-value between 5 and 1000. […]
For orientation: ITC needs no label: the signal is the heat of the interaction.

A further series concerns the target hERG (Homo sapiens, UniProt Q12809). Nature of the series: hERG activity. For orientation: Block of hERG is tested as a sign of cardiac risk.

Sequence of hERG (Q12809 whole entry): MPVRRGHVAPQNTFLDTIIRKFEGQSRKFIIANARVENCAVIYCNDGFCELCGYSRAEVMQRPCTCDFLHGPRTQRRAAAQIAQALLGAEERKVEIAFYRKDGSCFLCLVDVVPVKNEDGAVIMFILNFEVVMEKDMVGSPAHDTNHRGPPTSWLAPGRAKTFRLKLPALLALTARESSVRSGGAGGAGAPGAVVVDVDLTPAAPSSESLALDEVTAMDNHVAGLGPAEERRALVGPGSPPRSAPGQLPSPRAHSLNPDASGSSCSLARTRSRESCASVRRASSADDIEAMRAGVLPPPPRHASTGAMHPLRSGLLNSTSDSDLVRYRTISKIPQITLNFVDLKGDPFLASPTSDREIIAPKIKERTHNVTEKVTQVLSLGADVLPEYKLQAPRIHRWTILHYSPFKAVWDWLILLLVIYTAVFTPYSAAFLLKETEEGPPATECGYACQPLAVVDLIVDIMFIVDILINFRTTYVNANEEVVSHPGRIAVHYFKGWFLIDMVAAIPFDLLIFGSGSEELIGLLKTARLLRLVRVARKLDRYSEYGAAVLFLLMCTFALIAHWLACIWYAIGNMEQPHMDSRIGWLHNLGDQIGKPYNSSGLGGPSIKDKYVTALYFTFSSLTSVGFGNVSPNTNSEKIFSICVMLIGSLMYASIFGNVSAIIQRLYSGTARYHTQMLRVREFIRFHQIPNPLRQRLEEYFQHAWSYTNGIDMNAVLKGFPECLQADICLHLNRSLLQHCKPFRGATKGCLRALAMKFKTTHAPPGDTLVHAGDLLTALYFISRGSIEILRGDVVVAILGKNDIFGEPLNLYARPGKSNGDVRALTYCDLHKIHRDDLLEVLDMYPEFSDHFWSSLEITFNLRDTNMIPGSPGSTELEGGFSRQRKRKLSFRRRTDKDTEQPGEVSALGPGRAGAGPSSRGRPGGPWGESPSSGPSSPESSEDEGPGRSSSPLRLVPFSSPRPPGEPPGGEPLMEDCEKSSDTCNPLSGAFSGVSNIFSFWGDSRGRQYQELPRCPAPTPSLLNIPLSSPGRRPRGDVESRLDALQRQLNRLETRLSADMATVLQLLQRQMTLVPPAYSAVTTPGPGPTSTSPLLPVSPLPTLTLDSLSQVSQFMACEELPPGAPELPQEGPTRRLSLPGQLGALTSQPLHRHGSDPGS

As for `CC(C)c1cc(C(=O)N2Cc3ccc(CN4CCN(C)CC4)cc3C2)c(O)cc1O.Cl` [Form FH1, (2,4-dihydroxy-5-isopropyl-phenyl)-[5-(4-methyl-piperazin-1-ylmethyl)-1,3-dihydro-isoindol-2-yl]-methanone hydrochloride salt], the stability in air result in series [1] (listed as FH1, hydrochloride salt) is recorded as “unstable in air”. The hygroscopicity result in “Hygroscopicity” was “very hygroscopic and dissolves in air moisture”.
For `CC(C)c1cc(C(=O)N2Cc3ccc(CN4CCN(C)CC4)cc3C2)c(O)cc1O.C[C@H](O)C(=O)O` [(2,4-dihydroxy-5-isopropyl-phenyl)-[5-(4-methyl-piperazin-1-ylmethyl)-1,3-dihydro-isoindol-2-yl]-methanone L-lactate salt], the hygroscopicity result in the series “Hygroscopicity” is reported as “non-hygroscopic”. Moreover, in the series “Rate of solubility”, the rate of solubility entry is “better rate of solubility than the free base and other salts tested”.
As for `CC(C)c1cc(C(=O)N2Cc3ccc(CN4CCN(C)CC4)cc3C2)c(O)cc1O.Cl` [Form FH5, (2,4-dihydroxy-5-isopropyl-phenyl)-[5-(4-methyl-piperazin-1-ylmethyl)-1,3-dihydro-isoindol-2-yl]-methanone hydrochloride salt], in series [1] (listed as FH5, hydrochloride salt), the stability in air result was “unstable and dissolves in moist air”.
As to `CC(C)c1cc(C(=O)N2Cc3ccc(CN4CCN(C)CC4)cc3C2)c(O)cc1O.O=S(=O)(O)O` [Form FS2, (2,4-dihydroxy-5-isopropyl-phenyl)-[5-(4-methyl-piperazin-1-ylmethyl)-1,3-dihydro-isoindol-2-yl]-methanone sulphate salt], in series [1] (listed as FS2, sulphate salt), the “stability at 40° C. and 75% RH” value is “transforms to form FS4”; the stability in air result was “unstable on air and transforms to form FS5”; the “stability of the crystalline form (stable / unstable form)” value (from here on “stability … (stable / unstable form)”) is “unstable forms”.
Regarding `CC(C)c1cc(C(=O)N2Cc3ccc(CN4CCN(C)CC4)cc3C2)c(O)cc1O` [Compound (1), (2,4-dihydroxy-5-isopropyl-phenyl)-[5-(4-methyl-piperazin-1-ylmethyl)-1,3-dihydro-isoindol-2-yl]-methanone], the IC50 in series [2] was under 100 nM. In series [3], this molecule showed a Kd of under 100 nM. In addition, at hERG, the hERG activity entry is “low hERG activity” and the “mean IC50 value against hERG relative to the IC50 values of the compound in cellular proliferation assays” value is given as “greater than 30 times”. In addition, the IC50 on hERG (read-out: mean IC50 value against hERG) is over 15000 nM.
With `CC(C)c1cc(C(=O)N2Cc3ccc(CN4CCN(C)CC4)cc3C2)c(O)cc1O` [Form FB5, (2,4-dihydroxy-5-isopropyl-phenyl)-[5-(4-methyl-piperazin-1-ylmethyl)-1,3-dihydro-isoindol-2-yl]-methanone], the stability in air result in series [1] (listed as FB5) is given as “unstable in air; also recorded: transforms to FB6 in air; also recorded: conversion to form FB6”.
Turning to `CC(C)c1cc(C(=O)N2Cc3ccc(CN4CCN(C)CC4)cc3C2)c(O)cc1O.C[C@H](O)C(=O)O` [Form FL2, (2,4-dihydroxy-5-isopropyl-phenyl)-[5-(4-methyl-piperazin-1-ylmethyl)-1,3-dihydro-isoindol-2-yl]-methanone L-lactate salt], in series [1] (listed as FL2), the stability in air result is on record as “stable in air” and the “stability … (stable / unstable form)” value is on record as “stable forms”.
Turning to `CC(C)c1cc(C(=O)N2Cc3ccc(CN4CCN(C)CC4)cc3C2)c(O)cc1O.C[C@H](O)C(=O)O` [Form FL3, (2,4-dihydroxy-5-isopropyl-phenyl)-[5-(4-methyl-piperazin-1-ylmethyl)-1,3-dihydro-isoindol-2-yl]-methanone L-lactate salt], in series [1] (listed as FL3), the stability in air entry was “transforms in air into form FL1; also recorded: conversion to form FL1” and the “stability … (stable / unstable form)” value is “unstable form”.
Regarding `CC(C)c1cc(C(=O)N2Cc3ccc(CN4CCN(C)CC4)cc3C2)c(O)cc1O.O=S(=O)(O)O` [Form FS1, (2,4-dihydroxy-5-isopropyl-phenyl)-[5-(4-methyl-piperazin-1-ylmethyl)-1,3-dihydro-isoindol-2-yl]-methanone sulphate salt], in series [1] (listed as FS1, sulphate salt), the stability in air result was “unstable on air and transforms to form FS3”; the “stability … (stable / unstable form)” value was “unstable forms”.
`CC(C)c1cc(C(=O)N2Cc3ccc(CN4CCN(C)CC4)cc3C2)c(O)cc1O` [Form FB4, (2,4-dihydroxy-5-isopropyl-phenyl)-[5-(4-methyl-piperazin-1-ylmethyl)-1,3-dihydro-isoindol-2-yl]-methanone]: the “stability … (stable / unstable form)” value in series [1] was “stable”. In series [1] (listed as FB4), the stability in air entry is “stable in air”.
On to `CC(C)c1cc(C(=O)N2Cc3ccc(CN4CCN(C)CC4)cc3C2)c(O)cc1O.O=S(=O)(O)O` [Form FS3, (2,4-dihydroxy-5-isopropyl-phenyl)-[5-(4-methyl-piperazin-1-ylmethyl)-1,3-dihydro-isoindol-2-yl]-methanone sulphate salt], for which, in series [1] (listed as FS3, sulphate salt), the “stability … (stable / unstable form)” value is given as “stable form”.
For `CC(C)c1cc(C(=O)N2Cc3ccc(CN4CCN(C)CC4)cc3C2)c(O)cc1O.O=S(=O)(O)O` [Form FS5, (2,4-dihydroxy-5-isopropyl-phenyl)-[5-(4-methyl-piperazin-1-ylmethyl)-1,3-dihydro-isoindol-2-yl]-methanone sulphate salt], the “stability … (stable / unstable form)” value is “stable forms” in series [1] (listed as FS5, sulphate salt) and “stable form” in series [1] (listed as FS53, sulphate salt).
On to `CC(C)c1cc(C(=O)N2Cc3ccc(CN4CCN(C)CC4)cc3C2)c(O)cc1O.O=S(=O)(O)O` [Form FS6, (2,4-dihydroxy-5-isopropyl-phenyl)-[5-(4-methyl-piperazin-1-ylmethyl)-1,3-dihydro-isoindol-2-yl]-methanone sulphate salt], for which, in series [1] (listed as FS6, sulphate salt), the “stability at 40° C. and 75% RH” value is recorded as “transforms into form FS3”; the stability in air result is given as “stable in air”; the “stability … (stable / unstable form)” value is recorded as “stable forms”.
